Assays:
Type in all cases: cell-based, Clostridium Difficile
[1] = system: C. Difficile NCTC 11204 and ribotype 027 (R20291) spores; test: Germination tests, heat shock method (heat vs ice); settings: 2% (w/v) germination solution, 1 hour, strains 11204 and 027; for >1 log reduction on heat: then 70° C. for 20 minutes, reduction suggests germinant; for >1 log reduction on ice: control samples kept on ice, reduction suggests sporicide or germinant/antimicrobial
Protocol: Many of the synthesised compounds were tested for their germinating and antimicrobial abilities against C. Difficile. Due to the insolubility of some of the compounds in water, DMSO, ethanol and methanol were used to dissolve the compounds.
The C. Difficile reference strain, NCTC 11204 and C. Difficile ribotype 027 (R20291) (Anaerobic Reference Laboratory, Cardiff, UK) were used during testing.
Spore suspensions of C. Difficile were prepared following the method proposed by Shetty et al. (1999). Briefly, Columbia base agar plates were inoculated with the relevant strain of C. Difficile and incubated for 72 hours anaerobically at 37° C. (MiniMACS anaerobic cabinet, Don Whitley Scientific, Shipley, UK). Then, the plates were removed and left or 24 hours in aerobic conditions at room temperature. Colonies were then harvested into 20 mL of 50% (w/v) ethanol and 50% saline, and vortex thoroughly. These were stored at 4° C. until needed.
All experiments were performed in triplicate using spore suspensions containing 1×10^7 CFU mL^−1 spores of C. difficile NCTC 11204 and ribotype 027.
Before use, 1 mL of spores were centrifuged at 13000 rpm for 10 minutes (Spectrafuge 24D; Labnet, Woodbridge, USA). The supernatant was discarded, and the pellet resuspended in 1 mL sterile distilled water and vortex mixed thoroughly.
Germination solutions were prepared using 2% (w/v) of the compound in diluent (DMSO, ethanol, methanol, water) plus double strength thioglycollate medium (Oxoid, UK).
For the heat shock method, 100 μl spores were exposed to 100 μl of the germination solution and incubated at room temperature in air for 1 hour. The entire 200 μl sample was then added to 800 μl sterile distilled water to dilute out the germinant to ineffective concentrations. Samples were placed on heat at 70° C. for 20 minutes to eliminate any germinated, metabolically active spores. Control samples were kept on ice. Solutions were then diluted accordingly using sterile distilled water, and cultured onto fastidious anaerobic agar (Lab M, Bury, UK), supplemented with 0.1% (w/v) sodium taurocholate (ST) and 5% (w/v) defibrinated horse blood using the Miles and Misra method (Miles et al., 1938). These were then incubated anaerobically for 48 hours at 37° C. (MiniMACS anaerobic cabinet, Don Whitley Scientific, Shipley, UK) and the CFU mL^−1 counted.
The results from the table above show the compounds that gave a 1 log reduction or more between the initial spore count and the spore count after the heat and ice treatment. […] Due to the nature of this test, it is difficult to distinguish between the two.

C. Difficile spores [2] = test: Germination activity of compound 129 reactively processed with HDPE after subsequent exposure to ethanol; settings: for % Reduction 2 hours / Log Reduction 2 hours / % Reduction 24 hours / Log Reduction 24 hours / % Reduction 96 hours / Log Reduction 96 hours: HDPE polymer film, after ethanol exposure
Protocol: HDPE (high density polyethylene) samples containing the modified bile salt compound 129, reactively processed under different compression moulding conditions, were tested to determine the germination activity. […] Difficile spores. This confirms the germination activity of compound 129 when incorporated into HDPE by reactive processing.

C. Difficile spores [3] = test: Germination and antimicrobial efficiency (dual activity) of compound 129 in HDPE; settings: for % Reduction 2 hours / Log Reduction 2 hours / % Reduction 24 hours / Log Reduction 24 hours / % Reduction 96 hours / Log Reduction 96 hours: HDPE polymer
Description: Reactively processed HDPE polymer containing compound 129 is shown to have the ability to both germinate the spores of C. […] This exemplifies, therefore, the dual action of compound 129 and its efficacy both as a germinant and an antimicrobial.

C[C@H](CCC(=O)NCCC[N+](C)(C)c1ccc(C(=O)c2ccccc2)cc1)[C@H]1CC[C@H]2[C@@H]3[C@H](O)C[C@@H]4C[C@H](O)CC[C@]4(C)[C@H]3C[C@H](O)[C@]12C.[Br-] [2/148]
>1 log reduction on heat [1]: Yes (027)

C[C@H](CCC(=O)NCC[N+]1(c2ccc(C(=O)c3ccccc3)cc2)CCCC1)[C@H]1CC[C@H]2[C@@H]3[C@H](O)C[C@@H]4C[C@H](O)CC[C@]4(C)[C@H]3C[C@H](O)[C@]12C.[Br-] [2/150]
>1 log reduction on ice [1]: Yes (11204)

C[C@H](CCC(=O)NCc1ccccc1)[C@H]1CC[C@H]2[C@@H]3[C@H](O)C[C@@H]4C[C@H](O)CC[C@]4(C)[C@H]3C[C@H](O)[C@]12C [Compound 2, cholic acid benzyl amide]
>1 log reduction on ice [1]: Yes (11204)

CCCCN(CCCC)CCCNC(=O)CC[C@@H](C)[C@H]1CC[C@H]2[C@@H]3[C@H](O)C[C@@H]4C[C@H](O)CC[C@]4(C)[C@H]3C[C@H](O)[C@]12C [Compound 7]
>1 log reduction on ice [1]: Yes (11204) | >1 log reduction on heat [1]: Yes (11204)

C[C@H](CCC(=O)NCCN1CCCC1)[C@H]1CC[C@H]2[C@@H]3[C@H](O)C[C@@H]4C[C@H](O)CC[C@]4(C)[C@H]3C[C@H](O)[C@]12C [Compound 10]
>1 log reduction on heat [1]: Yes (11204)

CCCCCCCCCCCCCCCCCCNC(=O)CC[C@@H](C)[C@H]1CC[C@H]2[C@@H]3[C@H](O)C[C@@H]4C[C@H](O)CC[C@]4(C)[C@H]3C[C@H](O)[C@]12C [Compound 16]
>1 log reduction on heat [1]: Yes (11204 and 027)

CCCCCC[N+](C)(C)CCCNC(=O)CC[C@@H](C)[C@H]1CCC2C3C(C[C@H](O)[C@@]21C)[C@@]1(C)CC[C@@H](O)CC1C[C@H]3O (stereo partly shown) [Compound 29]
>1 log reduction on heat [1]: yes

C=CC[N+](C)(C)CCCNC(=O)CC[C@@H](C)[C@H]1CCC2C3C(C[C@H](O)[C@@]21C)[C@@]1(C)CC[C@@H](O)CC1C[C@H]3O.[Br-] (stereo partly shown) [Compound 34, 3-cholanamidopropyl-allyl-dimethyl-ammonium;bromide]
>1 log reduction on heat [1]: yes

CCC[N+]1(CCNC(=O)CC[C@@H](C)[C@H]2CC[C@H]3[C@@H]4[C@H](O)C[C@@H]5C[C@H](O)CC[C@]5(C)[C@H]4C[C@H](O)[C@]23C)CCCC1.[I-] [Compound 45]
>1 log reduction on ice [1]: yes | >1 log reduction on heat [1]: yes

C[C@H](CCC(=O)NCC[N+]1(Cc2ccccc2)CCCC1)[C@H]1CC[C@H]2[C@@H]3[C@H](O)C[C@@H]4C[C@H](O)CC[C@]4(C)[C@H]3C[C@H](O)[C@]12C [Compound 50]
>1 log reduction on ice [1]: yes | >1 log reduction on heat [1]: yes

C=Cc1ccc(C[N+](C)(C)CCNC(=O)CC[C@@H](C)[C@H]2CCC3C4CCC5C[C@H](O)CC[C@]5(C)C4CC[C@@]32C)cc1.[Cl-] (stereo partly drawn) [Compound 129, 2-[[(4R)-4-[(3R,10S,13R,17R)-3-hydroxy-10,13-dimethyl-2,3,4,5,6,7,8,9,11,-12,14,15,16,17-tetradecahydro-1H-cyclopenta[a]phenanthren-17-yl]pentanoyl]-amino]ethyl-dimethyl-[(4-vinylphenyl)methyl]ammonium chloride]
germination activity, lower vs higher processing temperature (C. Difficile spores [2]; 3% films, samples processed at the lower temperature (165° C. vs 170° C.), after 24 and 46 hours): slightly higher level of germination activity | % Reduction 2 hours (C. Difficile spores [2]; 3% T101 160° C.): 79.8% | Log Reduction 2 hours (C. Difficile spores [2]; 3% T101 160° C.): 0.752 Log | % Reduction 24 hours (C. Difficile spores [2]; 3% T101 160° C.): 67.6% | Log Reduction 24 hours (C. Difficile spores [2]; 3% T101 160° C.): 0.546 Log | % Reduction 96 hours (C. Difficile spores [2]; 3% T101 160° C.): 69.8% | Log Reduction 96 hours (C. Difficile spores [2]; 3% T101 160° C.): 0.577 Log | % Reduction 2 hours (C. Difficile spores [2]; 3% T101 165° C.): 99.2% | Log Reduction 2 hours (C. Difficile spores [2]; 3% T101 165° C.): 2.165 Log | % Reduction 24 hours (C. Difficile spores [2]; 3% T101 165° C.): 97.1% | Log Reduction 24 hours (C. Difficile spores [2]; 3% T101 165° C.): 1.598 Log | % Reduction 96 hours (C. Difficile spores [2]; 3% T101 165° C.): 92.0% | Log Reduction 96 hours (C. Difficile spores [2]; 3% T101 165° C.): 1.154 Log | % Reduction 2 hours (C. Difficile spores [2]; 3% T101 170° C.): 99.2% | Log Reduction 2 hours (C. Difficile spores [2]; 3% T101 170° C.): 2.165 Log | % Reduction 24 hours (C. Difficile spores [2]; 3% T101 170° C.): 87.8% | Log Reduction 24 hours (C. Difficile spores [2]; 3% T101 170° C.): 0.971 Log | % Reduction 96 hours (C. Difficile spores [2]; 3% T101 170° C.): 82.0% | Log Reduction 96 hours (C. Difficile spores [2]; 3% T101 170° C.): 0.802 Log | germination activity (C. Difficile spores [2]; HDPE samples with a higher amount of compound 129 (6%)): did not perform well | Log reduction compared to the HDPE/peroxide T101 control (C. Difficile spores [2]; polymer film containing 3% of compound 129, prepared both at 165° C. and 170° C., at 2 hours): 2.2 Log | reduction in C. Difficile spores (C. Difficile spores [2]; prepared at 165° C./170° C., following subsequent exposure to ethanol): 99.2% | % Reduction 2 hours (C. Difficile spores [3]; 3% T101 165° C.): 96.9% | Log Reduction 2 hours (C. Difficile spores [3]; 3% T101 165° C.): 1.563 Log | % Reduction 24 hours (C. Difficile spores [3]; 3% T101 165° C.): 86.9% | Log Reduction 24 hours (C. Difficile spores [3]; 3% T101 165° C.): 0.940 Log | % Reduction 96 hours (C. Difficile spores [3]; 3% T101 165° C.): 78.0% | Log Reduction 96 hours (C. Difficile spores [3]; 3% T101 165° C.): 0.714 Log | % Reduction 2 hours (C. Difficile spores [3]; 3% T101 170° C.): 79.6% | Log Reduction 2 hours (C. Difficile spores [3]; 3% T101 170° C.): 0.747 Log | % Reduction 24 hours (C. Difficile spores [3]; 3% T101 170° C.): 75.4% | Log Reduction 24 hours (C. Difficile spores [3]; 3% T101 170° C.): 0.666 Log | % Reduction 96 hours (C. Difficile spores [3]; 3% T101 170° C.): 88.5% | Log Reduction 96 hours (C. Difficile spores [3]; 3% T101 170° C.): 0.998 Log | % Reduction 2 hours (C. Difficile spores [3]; 6% T101 160° C.): 0.0% | Log Reduction 2 hours (C. Difficile spores [3]; 6% T101 160° C.): 0.057 Log | % Reduction 24 hours (C. Difficile spores [3]; 6% T101 160° C.): 44.8% | Log Reduction 24 hours (C. Difficile spores [3]; 6% T101 160° C.): 0.315 Log | % Reduction 96 hours (C. Difficile spores [3]; 6% T101 160° C.): 86.8% | Log Reduction 96 hours (C. Difficile spores [3]; 6% T101 160° C.): 0.936 Log | spore reduction (C. Difficile spores [3]; reactive processing of the polymer at 170° C.): 79.6% | reduction of the subsequent metabolically active bio-load after spore germination (C. Difficile spores [3]; reactively processed HDPE polymer containing compound 129): 96.9%

— US11629166B2, “Compound for treating clostridium difficile” (priority 2014, dated 2023)
